# Measurements reported in patent US11464854B2, “Methods and compositions relating to adjuvants” (Children's Medical Center Corporation, priority 2017, dated 2022).
# Key:
# TNF = test: Rat pharmacodynamics: serum TNF by ELISA; assay type: in vivo, rats; conditions: rat, in vivo, sc
# [1] = test system: cytokine and IFN-inducible gene expression in draining lymph nodes and spleen; assay type: in vivo, mice; conditions: mouse, in vivo, sc
smiles,measurement,setting,value
"CCOCc1nc2c(N)nc3ccccc3c2n1CC(C)(C)O [R848, Resiquimod, reference compound]","Blood tumor necrosis factor (TNF) concentrations, peak",TNF,"~1,000 pg/ml"
same,time of peak cytokine mRNA expression,[1],1 to 3 h
